Assay results: PMC9503459, “Antifungal Activity, Structural Stability, and Immunomodulatory Effects on Human Immune Cells of Defensin from the Lentil Lens culinaris” (Membranes, 2022)
“And” between values parts separate entries of the source, which are not always exact repeats. Equal values may be shown once. No end group written: not given here.

Tested on: primary CD14+ blood monocytes
Assay: Cytokine response by multiplex xMAP, monocytes
Assay type: cell-based, human
Conditions: 2 µM, 24 h
Description: Colorectal adenocarcinoma Caco-2 cell line (ATCC HTB-37) was cultured in complete DMEM/F12 (1:1) medium containing 10% fetal bovine serum (FBS, Gibco) and 1X antibiotic-antimycotic solution (1XAAS, Invitrogen, Waltham, MA, USA). The acute monocytic leukemia THP-1 line (ATCC TIB-202) was cultured in complete RPMI-1640 medium, containing 10% FBS, 1XAAS, and […]. THP-1 cells were differentiated into pro-inflammatory macrophages (Mφ1) with phorbol 12-myristate 13-acetate (Sigma-Aldrich) for 24 h and subsequently polarized with lipopolysaccharide from E. coli (Sigma-Aldrich) and rhIFN-γ (Sigma-Aldrich) for another 48 h according to previously reported protocol. All cells were cultured in a humidified CO2 incubator (5% CO2, 37 °C). Primary peripheral blood mononuclear cells (PBMCs) collected from a healthy donor were purchased from American Type Culture Collection (ATCC PCS-800-011). CD4^+ T-helper and CD8^+ T cytotoxic cells were isolated from PBMCs by magnetic separation with mouse anti-human CD4-PE (clone 13B8.2, Beckman Coulter Diagnostics, Pasadena, CA, USA) and CD8-PE (clone REA734, Miltenyi Biotec, Bergisch Gladbach, Germany), Anti-PE MicroBeads (Miltenyi Biotec), and LS Separation Columns (Miltenyi Biotec). Isolated CD4^+ and CD8^+ cells were expanded separately with Dynabeads™ Human T-Expander CD3/CD28 (Gibco, Waltham, MA, USA) in RPMI-1640 supplemented with 10% FBS, 1XAAS and 100 U/mL rh-IL-2 (Gibco). Regulatory CD4^+ FoxP3^+ T cells (Tregs) were isolated from PBMCs by magnetic separation with CD4^+CD25^+ Regulatory T Cell Isolation Kit, human (Miltenyi Biotec). Primary CD14^+ blood monocytes were isolated from PBMCs by adherence according to standard technique. Monocyte-derived mature dendritic cells (moDCs) were obtained from CD14^+ blood monocytes according to the previously reported protocol. Briefly, blood monocytes were incubated in complete RPMI-1640 medium, containing 10% FBS, 1XAAS, 800 U/mL rhGM-CSF (Sci-Store, Russia, Moscow) and 500 U/mL rhIL-4 (Sci-Store) for 3 days. Fresh complete RPMI-1640 medium with rhGM-CSF and rhIL-4 was added to the culture on day 3. On day 5, fresh complete RPMI-1640 containing 100 U/mL rhTNF-α (Sigma) as well as 800 U/mL rhGM-CSF and 500 U/mL rhIL-4 was added and the culture was incubated for another 4 days until full maturation.
Caco-2 cells were seeded into the wells of a 48-well plate, coated with 0.1% bovine collagen (Sigma-Aldrich) for 24 h, 3 weeks before the experiment with complete DMEM/F12 (1:1) medium renewal every 2–3 days. Monocytes, moDCs, CD4^+ T-helper and CD8^+ T cytotoxic cells, Mφ1, and Regulatory CD4^+ FoxP3^+ T cells were seeded into the wells of 48-well plates in the complete RPMI-1640 medium supplemented with 10% Human AB serum (HABS, Capricorn Scientific, Ebsdorfergrund, Germany) and 1XAAS 24 h prior to the experiment; medium in Caco-2-containing wells was also replaced with the same medium. After 24 h, half of the medium in each well was replaced by fresh complete RPMI-1640 medium with 10% HABS, supplemented with 4 µM of Lc-def for the sample wells or fresh medium alone for the control wells. Cell cultures were kept in CO2-incubator (5% CO2, 37 °C) for another 24 h. Culture supernatants were collected 24 h later and stored at −70 °C degrees less than one month prior to the analytes assessment. […]

In the case of “Lc-def: defensin from lentil Lens culinaris seeds (UniProt:B3F051), recombinant, overexpressed in Escherichia coli (KTCENLSDSFKGPCIPDGNCNKHCKEKEHLLSGRCRDDFRCWCTRNC; disulfide (positions not given here); ends not checked; also: disulfide bonds present, pairing not given here; UniProt B3F051 28-74, looked up)”, the EGF is reported as 11.56 pg/mL, the Eotaxin is reported as <3.23↓ pg/ml and the FGF-2 is reported as 44.46 pg/mL. For the same substance, the FLT-3L was 1.04 pg/mL, the Fractalkine was <23.19↓ pg/ml and the G-CSF was 22.68 pg/mL. The GM-CSF was 3.49 pg/mL, the GROa was 777.01 pg/mL and the IFNa2 was 21.43 pg/mL. The IFNg was <1.99↓ pg/ml, the IL-1RA was 10.83 pg/mL and the IL-1a was 17.69 pg/mL. The IL-1b was <18.72↓ pg/ml, the IL-2 was 2.62 pg/mL and the IL-3 was <0.48↓ pg/ml. For the same substance, the IL-4 was 0.58 pg/mL, the IL-5 was <0.24↓ pg/ml and the IL-6 was 378 pg/mL and 378.12 pg/mL. For the same substance, the IL-7 was <0.33↓ pg/ml, the IL-8 was 5662 pg/mL and the IL-9 was 1.6 pg/mL. For the same substance, the IL-10 was 8.4 pg/mL, the “IL-12 (p40)” value was 19.56 pg/mL and the “IL-12 (p70)” value was 2.22 pg/mL. It also gave an IL-13 of 15.11 pg/mL, an IL-15 of 3.53 pg/mL and an IL-17A of 2.6 pg/mL. The IL-17E/IL-25 was <20.59↓ pg/ml, the IL-17F was <16.96↓ pg/ml and the IL-18 was 2.04 pg/mL. The IL-22 was 17.03 pg/mL, the IL-27 was 60.93 pg/mL and the IP-10 was 529.41 pg/mL. The M-GSF was 38.29 pg/mL, the MCP-1 was 5545 pg/mL and the MCP-3 was 326 pg/mL and 326.33 pg/mL. For the same substance, the MDC was 995.8 pg/mL, the MIG was 1406 pg/mL and the MIP-1a was 14.98 pg/mL. For the same substance, the MIP-1b was 42.32 pg/mL, the PDGF-AB/BB was 943.35 pg/mL and the RANTES was 5.41 pg/mL. For the same substance, the TGF-a was 1.79 pg/mL, the TNFa was 27.51 pg/mL and the TNFb was 1.77 pg/mL. For the same substance, the VEGFa was 21.72 pg/mL and the sCD40L was 65.54 pg/mL.
